Here are results for ten molecules from patent US4446148A, “Benzodioxanyl imidazoline compounds, compositions and use” (priority 1982, dated 1984).

As a reminder, the Ki is the equilibrium dissociation constant of an inhibitor or competing ligand from its target. A high value points to lower affinity.

The subject of test [1] is presynaptic α2-adrenoreceptors. The experiment in a line: Presynaptic α2-adrenoreceptor antagonism in the pithed rat: reversal of clonidine block on vas deferens, intravenous. It counts as in vivo. Conditions: for i.v. dose of antagonist causing 50% reversal of clonidine block on vas deferens: cumulative i.v. dosing, clonidine 100 μg/kg i.v., mean of minimum 4 rats. The procedure:
This test model extends the evaluation of presynaptic α2 -adrenoreceptor antagonism versus clonidine on the rat vas deferens to the in vivo situation. Blood pressure and stimulation induced contractions of the vas deferens were monitored in pithed rats using the method of Brown, J., Doxey, J. C., Handley, S. and Virdee, N., Recent Advances in the Pharmacology of Adrenoceptors, Elsevier North Holland, 1978. Clonidine (100 μg/kg. i.v.) causes a prolonged pressor response and a prolonged inhibition of vas deferens contractions. The test drugs were injected intravenously in a cumulative dosing schedule and their abilities to reverse the inhibition of hypogastric nerve stimulation reflected their presynaptic antagonism.
The results are the mean of a minimum of 4 rats.

Test [2] deals with T1, presynaptic α2-adrenoreceptor (Rattus norvegicus, UniProt P22909).
T1 construct: on the rat vas deferens stimulated at a frequency of 0.1 Hz; from tissue; host or cells: rat vas deferens
T1 sequence (P22909 1-465): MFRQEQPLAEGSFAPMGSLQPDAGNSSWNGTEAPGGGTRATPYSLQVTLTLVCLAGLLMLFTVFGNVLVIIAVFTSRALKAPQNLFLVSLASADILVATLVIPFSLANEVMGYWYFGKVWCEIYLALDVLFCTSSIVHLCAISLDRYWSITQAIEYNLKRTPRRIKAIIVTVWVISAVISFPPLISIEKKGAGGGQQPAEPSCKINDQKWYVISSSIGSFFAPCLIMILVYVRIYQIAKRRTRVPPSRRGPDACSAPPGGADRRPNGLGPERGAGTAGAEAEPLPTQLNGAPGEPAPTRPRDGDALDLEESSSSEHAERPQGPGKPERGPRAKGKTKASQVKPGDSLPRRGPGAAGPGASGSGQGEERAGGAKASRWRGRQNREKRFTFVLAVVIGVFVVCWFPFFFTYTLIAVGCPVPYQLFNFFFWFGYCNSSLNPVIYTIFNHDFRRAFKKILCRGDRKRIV
The experiment in a line: Presynaptic α2-adrenoreceptor antagonism versus clonidine on the stimulated rat vas deferens (isolated tissue). The note with it: for Pre/postsynaptic ratio: presynaptic α2 (vs clonidine, vas deferens) to postsynaptic α1 (vs noradrenaline, anococcygeus) antagonism. The source says: (§1) This in vitro model is particularly useful as an initial screen for studying presynaptic activity in isolation since the physiological nature of the vas deferens tissue is such that the postsynaptic receptors located therein are particularly inaccessible to exogenous agents. In consequence an alternative tissue, the rat anococcygeus muscle is used to establish postsynaptic α1 -adrenoreceptor activity. Antagonism of noradrenaline contractions is used to determine pA2 values at postsynaptic α1 -adrenoreceptors. The ratio of presynaptic α2 -adrenoreceptor antagonism (versus clonidine on the rat vas deferens) to postsynaptic α1 -adrenoreceptor antagonism (versus noradrenaline contractions on the rat anococcygeus muscle) is used to assess adrenoreceptor selectivity.
(§2) The results are the mean of a minimum of 5 experiments.

Test [3] has as its target T2, α2-binding sites (Rattus norvegicus, UniProt P22909).
T2 construct: A crude synaptosomal P2 fraction was prepared; from tissue; host or cells: cerebral cortex including hippocampus, male Sprague-Dawley rats, crude synaptosomal P2 fraction
T2 sequence (P22909 1-465): T1 sequence (P22909 1-465)
The experiment in a line: Radioligand competition binding at α2-binding sites labelled by [^3 H]-RX781094 in rat cerebral cortex. Conditions: for Ki: α2 Ki vs [^3 H]-RX 781094, rat cerebral cortex, 1 nM radioligand, 15 min, 25° C.; for activity of the enantiomers (in words): from Table 4 / testing results. The source says:
The pharmacological activity of the racemic compound (RS) of Example 1 (in formula I R^1 =methyl) has been compared with the activities of the R and S enantiomers.
Male Sprague-Dawley rats, 250-300 g, were killed by decapitation, the brains quickly removed and the cerebral cortex dissected free from striatal tissue but including the hippocampus. Tissue was homogenized in ice-cold buffered sucrose (20 vols w/v 0.3 M sucrose in Tris/HCl buffer, 0.05 M, pH 7.4) using a Potter-type glass-teflon homogenizer. A crude synaptosomal P2 fraction was prepared and the washed P2 -pellet was resuspended in a physiological salt solution to give a final protein concentration of about 1 mg/ml. The physiological salt solution had the following composition ([…]): 118 NaCl, 4.8 KCl, 1.3 CaCl2, 1.2 […], 1.2 MgSO4, 25 NaHCO3 and was equilibrated with 95% O2 and 5% CO2.
Samples were incubated for 15 min at 25° C. and then rapidly filtered under vacuum through Whatman GFB filters and washed. Filters were transferred to scintillation vials and NE 260 miscellar scintillation fluid (3.5 ml) was added prior to scintillation counting (at 40% efficiency). Competition binding curves including up to eight concentrations of test antagonist were constructed and IC50 values determined. Hill plots made from each set of data were linear with Hill coefficients (nh) […] to 1.0 and inhibitor constants (Ki values) were derived from IC50 values.
For orientation: Loss of bound radioactivity is the signal in a displacement assay; it reports binding, not function.

The target of test [4] is T3, postsynaptic α1-adrenoreceptor (Rattus norvegicus, UniProt P43140).
T3 construct: the rat anococcygeus muscle is used to establish postsynaptic α1 -adrenoreceptor activity; from tissue; host or cells: rat anococcygeus muscle
T3 sequence (P43140 1-466): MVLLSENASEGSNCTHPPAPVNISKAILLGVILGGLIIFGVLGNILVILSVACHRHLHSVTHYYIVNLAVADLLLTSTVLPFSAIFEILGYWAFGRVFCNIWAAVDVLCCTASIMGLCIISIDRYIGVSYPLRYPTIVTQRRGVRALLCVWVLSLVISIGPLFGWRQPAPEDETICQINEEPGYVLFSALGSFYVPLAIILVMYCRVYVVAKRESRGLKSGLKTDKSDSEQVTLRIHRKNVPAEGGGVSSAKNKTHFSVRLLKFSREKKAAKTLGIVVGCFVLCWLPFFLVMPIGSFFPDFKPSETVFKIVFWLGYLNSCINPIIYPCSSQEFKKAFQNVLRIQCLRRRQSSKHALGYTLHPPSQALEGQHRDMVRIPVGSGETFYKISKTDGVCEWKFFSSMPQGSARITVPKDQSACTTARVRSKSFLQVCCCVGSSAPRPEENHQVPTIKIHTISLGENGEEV
The experiment in a line: Postsynaptic α1-adrenoreceptor antagonism versus noradrenaline contractions of the rat anococcygeus muscle (isolated tissue).
From the text: as §1, §2

Test [5] concerns the target T2, α2-binding sites. The experiment in a line: Saturation binding of [^3 H]-RX 781094 in rat cerebral cortex, Scatchard analysis. Conditions: 0.1-35 nM radioligand, n=4. As for the experimental part:
Male Sprague-Dawley rats, 250-300 g, were killed by decapitation, the brains quickly removed and the cerebral cortex dissected free from striatal tissue but including the hippocampus. Tissue was homogenized in ice-cold buffered sucrose (20 vols w/v 0.3 M sucrose in Tris/HCl buffer, 0.05 M, pH 7.4) using a Potter-type glass-teflon homogenizer. A crude synaptosomal P2 fraction was prepared and the washed P2 -pellet was resuspended in a physiological salt solution to give a final protein concentration of about 1 mg/ml.

Entries after “also recorded” stand apart in the source; their conditions may differ. Counter-ions that a name gives are not always drawn. Like-named read-outs stand apart in the source and are kept apart here.

For the molecule `COC1(C2=NCCN2)COc2ccccc2O1` (racemic) [Example 1, 2-[2-(2-Methoxy-1,4-benzodioxanyl)]-2-imidazoline], in test [1] (compounds of Table 3), the “presynaptic α2 antagonist potency in the pithed rat (in words)” value is “clearly the most potent presynaptic α2 -adrenoreceptor antagonist”. The “i.v. dose of antagonist causing 50% reversal of clonidine block on vas deferens” value in test [1] (pithed rat) is 0.002 mg/kg. Besides, the “presynaptic α2 antagonist activity relative to the unsubstituted compound (A)” value in test [2] (Table 2, relative to compound A) is listed as approximately 10 times. Further, the “presynaptic α2 antagonist activity relative to the 2-methyl compound (B)” value in test [2] (Table 2, relative to compound B) was 10 times. In test [2] (compounds of Table 2), the “presynaptic α2-adrenoreceptor antagonist potency and selectivity (in words)” value is reported as “most potent presynaptic α2 -adrenoreceptor antagonist; also recorded: extremely selective for presynaptic sites”. For the same molecule, the Pre/postsynaptic ratio in test [2] turned out to be 776. Also, the Kb in test [2] (rat vas deferens, 0.1 Hz stimulation, vs clonidine, mean of minimum 5 experiments, read-out: Presynaptic antagonism pA2 vs Clonidine (vas deferens) (converted)) was 0.0794 nM; in test [4] (rat anococcygeus muscle, vs noradrenaline, mean of minimum 5 experiments, read-out: Postsynaptic antagonism pA2 vs Noradrenaline (anococcygeus) (converted)), 63.1 nM. This molecule returned a Ki on α2-binding sites [3] of 0.8 ± 0.05 nM.

Regarding `COC1(C2=NCCN2)COc2ccccc2O1` (single isomer, unassigned) [S, 2-[2-(2-methoxy-1,4-benzodioxanyl)]-2-imidazoline], the “potency of the S isomer relative to the racemate (in words)” value on α2-binding sites [3] (from Table 4) was “twice as potent as the racemate”. For the same molecule, the “activity of the enantiomers (in words)” value on α2-binding sites [3] (listed as (+) enantiomer) is reported as “all the activity resided in the (+) enantiomer”; on α2-binding sites [3] (listed as S isomer), “the active form”. In addition, the affinity on α2-binding sites [3], expressed as Ki, was 0.36 ± 0.07 nM.

Take `COC1(C2=NCCN2)COc2ccccc2O1` (single isomer, unassigned; (-)) [R, (-)-2-[2-(2-methoxy-1,4-benzodioxanyl)]-2-imidazoline]: the “activity of the enantiomers (in words)” value at α2-binding sites [3] (listed as R isomer) was “almost inactive”. For the same molecule, the affinity on α2-binding sites [3] corresponds to a Ki of 256 ± 59 nM.

In turn, `c1ccc2c(c1)OCC(C1=NCCN1)O2` (stereo not shown) [A, 2-[2-(1,4-benzodioxanyl)]-2-imidazoline, reference compound] had a Kb in test [4] of 631 nM.

Regarding `CC1(C2=NCCN2)COc2ccccc2O1` (stereo not shown) [B, 2-[2-(2-methyl-1,4-benzodioxanyl)]-2-imidazoline, reference compound], the Pre/postsynaptic ratio in test [2] was found to be 871.

With `CN1CCN2c3ccccc3Cc3ccccc3C2C1` (stereo not shown) [Mianserin HCl], the “i.v. dose of antagonist causing 50% reversal of clonidine block on vas deferens” value in test [1] (pithed rat) is more than 4.4 mg/kg.

With `CN1CCN2c3ccccc3Cc3ccccc3C2C1` (stereo not shown) [Mianserin], in test [1] (pithed rat, cumulative intravenous dose of 4.4 mg/kg), the “maximum reversal of the inhibitory effects of clonidine on hypogastric nerve stimulation” value was found to be 36%.

In the case of `Cc1ccc(N(CC2=NCCN2)c2cccc(O)c2)cc1` [Phentolamine mesylate], in test [1] (pithed rat), the “i.v. dose of antagonist causing 50% reversal of clonidine block on vas deferens” value is reported as 0.12 mg/kg.

In the case of `COC(=O)[C@@H]1[C@H]2C[C@H]3c4[nH]c5ccccc5c4CCN3C[C@@H]2CC[C@@H]1O` [Yohimbine HCl], the “i.v. dose of antagonist causing 50% reversal of clonidine block on vas deferens” value in test [1] (pithed rat) came to 0.86 mg/kg.

At α2-binding sites [5], `c1ccc2c(c1)OCC(C1=NCCN1)O2` (stereo not shown) [[^3 H]-RX 781094, 2-[2-(1,4-benzodioxanyl)]-2-imidazoline] yielded a Bmax of 147±36 f moles/mg protein.
